Experimental data reported in patent US11427869B2, “T cell balance gene expression, compositions of matters and methods of use thereof” (THE BROAD INSTITUTE, INC., priority 2015, dated 2022).

System: CD5L−/− Th17 cells
Experiment: Nanostring nCounter Th17 codeset (312 genes), PUFA- or control-treated CD5L−/− Th17 cells
Format: cell-based, mouse
Description: Applicants studied the contribution of lipid saturation to Th17 cell pathogenicity. […] Applicants analyzed the expression of a 312 gene signature of Th17 cell differentiation and function (Yosef et al., 2013) in SFA- or control-treated WT Th17 cells and in PUFA- or control-treated CD5L−/− Th17 cells differentiated with TGF-81+IL-6.
T cell differentiation culture. Naïve CD4+CD44−CD62L+CD25− T cells or Effector memory CD4+CD44+CD62L− were sorted using BD FACSAria sorter and activated with plate-bound anti-CD3 and anti-CD28 antibodies (both at 2 μg/ml) in the presence of cytokines at a concentration of 2.5×10^5 cells/ml. For Th17 differentiation: 2 ng/ml of rhTGFβ1, 2 ng/ml of rhTGFβ3, 25 ng/ml rmIL-6, 20 ng/ml rmIL-18 (all from Miltenyi Biotec) and 20 ng/ml rmIL-23 (R & D systems) were used at various combinations as specified in figures. For Th1 differentiation, 20 ng/ml rmIL-12 (R & D systems); for Th2 differentiation 20 ng/ml rmIL-4 (Miltenyi Biotec); for iTreg differentiation, 2.5 ng/ml of rhTGFβ1 were used (Miltenyi Biotec). For differentiation experiments, cells were harvested at 48 hours. For restimulation experiments, cells were differentiated for 48 hours and resuspended in fresh media with no additional cytokines for 48-72 hours. Cells were re-stimulated with PMA/ionomycin for four hours before analysis for cytokines by intracellular cytokine staining. For experiments with exogenous fatty acid, fatty acids were purchased and resuspended first with serum-free media containing BSA prior being added to culture.
Nanostring nCounter. Nanostring nCounter platform (NanoString Technologies) is used to measure the number of RNA transcripts in RNA samples (FIG. 16I, FIG. 18D). A codeset containing 312 signature genes of Th17 cell differentiation and function as well as 4 additional house-keeping genes were custom-made (Yosef et al., 2013) and used in these experiments. Experimental procedures as detailed by the manufacturer is strictly followed.

CCCCC/C=C\C/C=C\C/C=C\C/C=C\CCCC(=O)O [PUFA, arachidonic acid]
Irf4 expression (Nanostring), normalized to WT (CD5LKO Th17 cells + PUFA): 0.65
Irf7 expression (Nanostring), normalized to WT (CD5LKO Th17 cells + PUFA): 1.17
Irf8 expression (Nanostring), normalized to WT (CD5LKO Th17 cells + PUFA): 1.29
Itga3 expression (Nanostring), normalized to WT (CD5LKO Th17 cells + PUFA): 0.76
Jak3 expression (Nanostring), normalized to WT (CD5LKO Th17 cells + PUFA): 1.27
Jun expression (Nanostring), normalized to WT (CD5LKO Th17 cells + PUFA): 0.64
Kat2b expression (Nanostring), normalized to WT (CD5LKO Th17 cells + PUFA): 1.22
Klf9 expression (Nanostring), normalized to WT (CD5LKO Th17 cells + PUFA): 0.75
Klf10 expression (Nanostring), normalized to WT (CD5LKO Th17 cells + PUFA): 1.30
Klrd1 expression (Nanostring), normalized to WT (CD5LKO Th17 cells + PUFA): 0.63
Lad1 expression (Nanostring), normalized to WT (CD5LKO Th17 cells + PUFA): 1.18
Lgals3bp expression (Nanostring), normalized to WT (CD5LKO Th17 cells + PUFA): 1.34
Litaf expression (Nanostring), normalized to WT (CD5LKO Th17 cells + PUFA): 0.61
Lpxn expression (Nanostring), normalized to WT (CD5LKO Th17 cells + PUFA): 1.39
Maf expression (Nanostring), normalized to WT (CD5LKO Th17 cells + PUFA): 0.84
Maff expression (Nanostring), normalized to WT (CD5LKO Th17 cells + PUFA): 0.77
Map3k5 expression (Nanostring), normalized to WT (CD5LKO Th17 cells + PUFA): 1.49
Mbnl3 expression (Nanostring), normalized to WT (CD5LKO Th17 cells + PUFA): 1.30
Mina expression (Nanostring), normalized to WT (CD5LKO Th17 cells + PUFA): 1.08
Mt1 expression (Nanostring), normalized to WT (CD5LKO Th17 cells + PUFA): 0.79
Mt2 expression (Nanostring), normalized to WT (CD5LKO Th17 cells + PUFA): 0.84
Nfkbie expression (Nanostring), normalized to WT (CD5LKO Th17 cells + PUFA): 1.52
Nkg7 expression (Nanostring), normalized to WT (CD5LKO Th17 cells + PUFA): 1.40
Notch2 expression (Nanostring), normalized to WT (CD5LKO Th17 cells + PUFA): 1.20
Oas2 expression (Nanostring), normalized to WT (CD5LKO Th17 cells + PUFA): 0.82
Peli2 expression (Nanostring), normalized to WT (CD5LKO Th17 cells + PUFA): 0.83
Plac8 expression (Nanostring), normalized to WT (CD5LKO Th17 cells + PUFA): 0.85
Plagl1 expression (Nanostring), normalized to WT (CD5LKO Th17 cells + PUFA): 1.07
Pmepa1 expression (Nanostring), normalized to WT (CD5LKO Th17 cells + PUFA): 1.19
Pou2af1 expression (Nanostring), normalized to WT (CD5LKO Th17 cells + PUFA): 0.86
Prkd3 expression (Nanostring), normalized to WT (CD5LKO Th17 cells + PUFA): 1.51
Pstpip1 expression (Nanostring), normalized to WT (CD5LKO Th17 cells + PUFA): 1.24
Rab33a expression (Nanostring), normalized to WT (CD5LKO Th17 cells + PUFA): 1.50
Rasgrp1 expression (Nanostring), normalized to WT (CD5LKO Th17 cells + PUFA): 1.21
Rel expression (Nanostring), normalized to WT (CD5LKO Th17 cells + PUFA): 0.73
Rela expression (Nanostring), normalized to WT (CD5LKO Th17 cells + PUFA): 0.96
Rfk expression (Nanostring), normalized to WT (CD5LKO Th17 cells + PUFA): 1.07
Rorc expression (Nanostring), normalized to WT (CD5LKO Th17 cells + PUFA): 1.52
Sap30 expression (Nanostring), normalized to WT (CD5LKO Th17 cells + PUFA): 0.81
Sema7a expression (Nanostring), normalized to WT (CD5LKO Th17 cells + PUFA): 1.04
Serpinb1a expression (Nanostring), normalized to WT (CD5LKO Th17 cells + PUFA): 0.77
Ski expression (Nanostring), normalized to WT (CD5LKO Th17 cells + PUFA): 0.86
Slc6a6 expression (Nanostring), normalized to WT (CD5LKO Th17 cells + PUFA): 1.03
Smad3 expression (Nanostring), normalized to WT (CD5LKO Th17 cells + PUFA): 1.03
Socs3 expression (Nanostring), normalized to WT (CD5LKO Th17 cells + PUFA): 1.38
Spp1 expression (Nanostring), normalized to WT (CD5LKO Th17 cells + PUFA): 0.66
Spry1 expression (Nanostring), normalized to WT (CD5LKO Th17 cells + PUFA): 1.02
Stat4 expression (Nanostring), normalized to WT (CD5LKO Th17 cells + PUFA): 1.21
Stat5b expression (Nanostring), normalized to WT (CD5LKO Th17 cells + PUFA): 1.19
Stat6 expression (Nanostring), normalized to WT (CD5LKO Th17 cells + PUFA): 1.13
Sult2b1 expression (Nanostring), normalized to WT (CD5LKO Th17 cells + PUFA): 0.61
Tal2 expression (Nanostring), normalized to WT (CD5LKO Th17 cells + PUFA): 1.52
Tcf4 expression (Nanostring), normalized to WT (CD5LKO Th17 cells + PUFA): 1.29
Tgfb1 expression (Nanostring), normalized to WT (CD5LKO Th17 cells + PUFA): 0.68
Tgfb3 expression (Nanostring), normalized to WT (CD5LKO Th17 cells + PUFA): 1.67
Tgfbr3 expression (Nanostring), normalized to WT (CD5LKO Th17 cells + PUFA): 0.94
Tgm2 expression (Nanostring), normalized to WT (CD5LKO Th17 cells + PUFA): 1.51
Tmem229b expression (Nanostring), normalized to WT (CD5LKO Th17 cells + PUFA): 1.52
Tnfrsf4 expression (Nanostring), normalized to WT (CD5LKO Th17 cells + PUFA): 1.05
Tnip2 expression (Nanostring), normalized to WT (CD5LKO Th17 cells + PUFA): 0.78
Trat1 expression (Nanostring), normalized to WT (CD5LKO Th17 cells + PUFA): 0.85
Trim25 expression (Nanostring), normalized to WT (CD5LKO Th17 cells + PUFA): 1.17
Trps1 expression (Nanostring), normalized to WT (CD5LKO Th17 cells + PUFA): 1.44
Tsc22d3 expression (Nanostring), normalized to WT (CD5LKO Th17 cells + PUFA): 0.66
Ubiad1 expression (Nanostring), normalized to WT (CD5LKO Th17 cells + PUFA): 1.16
Vav3 expression (Nanostring), normalized to WT (CD5LKO Th17 cells + PUFA): 1.20
Xrcc5 expression (Nanostring), normalized to WT (CD5LKO Th17 cells + PUFA): 1.27
nrp1 expression (Nanostring), normalized to WT (CD5LKO Th17 cells + PUFA): 0.90
pou2f1 expression (Nanostring), normalized to WT (CD5LKO Th17 cells + PUFA): 0.66
transcriptional signature (312 gene Th17 codeset, genes >1.5 fold) (PUFA-treated CD5L−/− Th17 cells, TGF-β1+IL-6): resemble WT non-pathogenic Th17 cells
